{"source": "paper PMC6277198", "about": "“Molecular basis for activation of lecithin:cholesterol acyltransferase by a compound that increases HDL cholesterol” (eLife, 2018)", "assay_in_all_cases": "MUP hydrolysis (esterase) assay", "format_in_all_cases": "biochemical", "key": {"LCAT R244A": {"target": "T1, LCAT R244A (Homo sapiens, UniProt P04180, R268A)", "T1 construct": "hydrolysis of 4-methylumbelliferyl palmitate (MUP) by full-length LCAT; made in house; host or cells: HEK293F (transient transfection, secreted)", "T1 sequence (P04180 25-440 R268A)": "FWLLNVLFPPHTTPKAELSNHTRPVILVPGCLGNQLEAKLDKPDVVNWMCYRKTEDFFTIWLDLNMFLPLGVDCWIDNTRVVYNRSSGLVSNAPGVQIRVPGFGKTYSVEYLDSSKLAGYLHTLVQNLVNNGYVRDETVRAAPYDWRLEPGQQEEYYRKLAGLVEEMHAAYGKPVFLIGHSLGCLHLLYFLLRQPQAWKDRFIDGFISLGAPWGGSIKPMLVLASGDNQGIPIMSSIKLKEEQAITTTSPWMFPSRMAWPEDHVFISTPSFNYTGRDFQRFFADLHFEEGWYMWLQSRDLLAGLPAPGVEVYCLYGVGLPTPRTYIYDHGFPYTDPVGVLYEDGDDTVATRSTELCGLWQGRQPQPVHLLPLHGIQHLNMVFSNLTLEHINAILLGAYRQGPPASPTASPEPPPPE", "procedure": "(§1) The lipase activity of LCAT was measured using MUP as a substrate. The assay was performed at room temperature in 0.1 M sodium phosphate buffer, pH 7.4 containing 0.01% Triton X-100. 4 μL of LCAT (6 nM final concentration) were dispensed into a 1536-well Greiner solid black plate. The same volume of assay buffer was dispensed into column 1 and 2 for a no-enzyme control. Then 23 nL DMSO or compounds titrated at 11-point 1:3 dilution series starting at 10 mM were transferred using a pintool. After 15 min incubation, 2 μL MUP (16 μM final concentration) was added to initiate the reaction. The hydrolysis of MUP was monitored using a ViewLux plate reader (excitation 380 nm/emission 450 nm) for 20 min. The fluorescence signal was normalized against no-activator and no-enzyme control after subtraction of background signal (t = 0 min). To plot percent activation, in each assay 100% was set at the rate of LCAT or LCAT variant without compound. The resulting data were fitted to a sigmoidal dose response curve."}, "LCAT R244H": {"target": "T2, LCAT R244H (Homo sapiens, UniProt P04180, R268H)", "T2 construct": "hydrolysis of 4-methylumbelliferyl palmitate (MUP) by full-length LCAT; made in house; host or cells: HEK293F (transient transfection, secreted)", "T2 sequence (P04180 25-440 R268H)": "T1 sequence (P04180 25-440 R268A) with A244H", "procedure": "as §1"}, "WT LCAT": {"target": "T3, WT LCAT (Homo sapiens, UniProt P04180)", "T3 sequence (P04180 25-440)": "T1 sequence (P04180 25-440 R268A) with A244R", "design": "hydrolysis of 4-methylumbelliferyl palmitate (MUP) by full-length LCAT; made in house; host or cells: HEK293F (transient transfection, secreted)", "procedure": "as §1, with “Then 23 nL DMSO or compounds titrated at 11-point 1:3 dilution series starting at 10 mM were transferred using a pintool.” left out"}, "[1]": {"conditions": "compound titrated from 0.04 to 9.5 μM"}, "[2]": {"conditions": "compound titrated from 0.04 to 9.5 μM, read-out: MUP assay EC50"}, "[3]": {"conditions": "read-out: EC50, MUP esterase assay"}, "[4]": {"conditions": "WT, compound titrated from 0.04 to 9.5 μM, read-out: MUP assay EC50"}, "[5]": {"conditions": "WT, compound titrated from 0.04 to 9.5 μM"}}, "note": "Where a chain is given by its changes, count along the chain named. Several values for one entry are separate records, joined by “and”; a condition that tells them apart may be missing. Identical values can stand only once. Like-named read-outs stand apart in the source and are kept apart here."}
{"smiles": "N#Cc1cnc(N2CCC(c3n[nH]c4c3C(O)(C(F)(F)F)CC(=O)N4)CC2)cc1C(F)(F)F", "note": "(stereo not drawn) [compound 1, 6-(4-(4-Hydroxy-6-oxo-4-(trifluoromethyl)−4,5,6,7-tetrahydro-1H-pyrazolo[3,4-b]pyridin-3-yl)piperidin-1-yl)−4-(trifluoromethyl)nicotinonitrile]", "values": [{"measurement": "Fold activation, MUP esterase assay", "setting": "LCAT R244A; [1]", "result": "1.7 ± 0.4", "unit": "fold"}, {"measurement": "EC50", "setting": "LCAT R244A; [2]", "result": "130 ± 20", "unit": "nM"}, {"measurement": "EC50", "setting": "LCAT R244A; [3]", "result": "~150", "unit": "nM"}, {"measurement": "Fold activation, MUP esterase assay", "setting": "LCAT R244H; [1]", "result": "1.6 ± 0.3", "unit": "fold"}, {"measurement": "EC50", "setting": "LCAT R244H; [2]", "result": "160 ± 30", "unit": "nM"}, {"measurement": "EC50", "setting": "LCAT R244H; [3]", "result": "~150", "unit": "nM"}, {"measurement": "EC50", "setting": "WT LCAT; [4]", "result": "160 ± 10", "unit": "nM"}, {"measurement": "EC50", "setting": "WT LCAT; full-length WT LCAT, read-out: EC50, MUP hydrolysis", "result": "~150", "unit": "nM"}]}
{"smiles": "O=C1CC(O)(C(F)(F)F)c2c(ncn2C2CCN(c3cnc(C(F)(F)F)cn3)CC2)N1", "note": "(stereo not drawn) [compound 3, 7-Hydroxy-7-(trifluoromethyl)−1-(1-(5-(trifluoromethyl)pyrazin-2-yl)piperidin-4-yl)−6,7-dihydro-1H-imidazo[4,5-b]pyridin-5(4H)-one]", "values": [{"measurement": "Fold activation, MUP esterase assay", "setting": "LCAT R244A; [1]", "result": "1.9 ± 0.2", "unit": "fold"}, {"measurement": "EC50", "setting": "LCAT R244A; [2]", "result": "400 ± 30", "unit": "nM"}, {"measurement": "Fold activation, MUP esterase assay", "setting": "LCAT R244H; [1]", "result": "1.8 ± 0.1", "unit": "fold"}, {"measurement": "EC50", "setting": "LCAT R244H; [2]", "result": "470 ± 50", "unit": "nM"}, {"measurement": "EC50", "setting": "WT LCAT; [4]", "result": "320 ± 50", "unit": "nM"}]}
{"smiles": "O=c1cc(C(F)(F)F)c2c(ncn2C2CCN(c3cnc(C(F)(F)F)cn3)CC2)[nH]1", "note": "[compound 8, 7-(trifluoromethyl)−1-(1-(5-(trifluoromethyl)pyrazin-2-yl)piperidin-4-yl)−1H-imidazo[4,5-b]pyridin-5(4H)-one]", "values": [{"measurement": "Fold activation, MUP esterase assay", "setting": "LCAT R244A; [1]", "result": "3.2 ± 0.8", "unit": "fold"}, {"measurement": "EC50", "setting": "LCAT R244A; [2]", "result": "> 10000", "unit": "nM"}, {"measurement": "Fold activation, MUP esterase assay", "setting": "LCAT R244H; [1]", "result": "2.8 ± 0.6", "unit": "fold"}, {"measurement": "EC50", "setting": "LCAT R244H; [2]", "result": "> 10000", "unit": "nM"}, {"measurement": "Fold activation, MUP esterase assay", "setting": "WT LCAT; [5]", "result": "3.7 fold and 3.7 ± 0.9 fold"}, {"measurement": "EC50", "setting": "WT LCAT; [4]", "result": "4600 ± 60", "unit": "nM"}]}
{"smiles": "O=C1CC(O)(C(F)(F)F)c2c(C3CCN(c4cnc(C(F)(F)F)cn4)CC3)n[nH]c2N1", "note": "(stereo not drawn) [compound 2, 4-Hydroxy-4-(trifluoromethyl)−3-(1-(5-(trifluoromethyl)pyrazin-2-yl)piperidin-4-yl)−4,5-dihydro-1H-pyrazolo[3,4-b]pyridin-6(7H)-one]", "values": [{"measurement": "Fold activation, MUP esterase assay", "setting": "LCAT R244A; [1]", "result": "1.9 ± 0.2", "unit": "fold"}, {"measurement": "EC50", "setting": "LCAT R244A; [2]", "result": "270 ± 40", "unit": "nM"}, {"measurement": "Fold activation, MUP esterase assay", "setting": "LCAT R244H; [1]", "result": "1.8 ± 0.1", "unit": "fold"}, {"measurement": "EC50", "setting": "LCAT R244H; [2]", "result": "320 ± 30", "unit": "nM"}, {"measurement": "EC50", "setting": "WT LCAT; [4]", "result": "280 ± 40", "unit": "nM"}]}
{"smiles": "O=C1CC(O)(C(F)(F)F)c2c(C3CCN(c4cnc(C(F)(F)F)cn4)CC3)noc2N1", "note": "(stereo not drawn) [compound 9, 4-hydroxy-4-(trifluoromethyl)−3-(1-(5-(trifluoromethyl)pyrazin-2-yl)piperidin-4-yl)−4,5-dihydroisoxazolo[5,4-b]pyridin-6(7H)-one]", "values": [{"measurement": "Fold activation, MUP esterase assay", "setting": "LCAT R244A; [1]", "result": "1.2 ± 0.1", "unit": "fold"}, {"measurement": "EC50", "setting": "LCAT R244A; [2]", "result": "6200 ± 800", "unit": "nM"}, {"measurement": "Fold activation, MUP esterase assay", "setting": "LCAT R244H; [1]", "result": "1.3 ± 0.06", "unit": "fold"}, {"measurement": "EC50", "setting": "LCAT R244H; [2]", "result": "7600 ± 1000", "unit": "nM"}, {"measurement": "Fold activation, MUP esterase assay", "setting": "WT LCAT; [5]", "result": "1.6 fold and 1.6 ± 0.2 fold"}, {"measurement": "EC50", "setting": "WT LCAT; [4]", "result": "7700 ± 2000", "unit": "nM"}]}
{"smiles": "O=C1CC(O)(C(F)(F)F)c2c(ncn2C2CCNCC2)N1", "note": "(stereo not drawn) [compound 6, 7-Hydroxy-1-(piperidin-4-yl)−7-(trifluoromethyl)−6,7-dihydro-1H-imidazo[4,5-b]pyridin-5(4H)-one]", "values": [{"measurement": "Fold activation, MUP esterase assay", "setting": "LCAT R244A; [1]", "result": "no effect"}, {"measurement": "MUP assay EC50", "setting": "LCAT R244A; [1]", "result": "no effect"}, {"measurement": "Fold activation, MUP esterase assay", "setting": "LCAT R244H; [1]", "result": "no effect"}, {"measurement": "MUP assay EC50", "setting": "LCAT R244H; [1]", "result": "no effect"}, {"measurement": "Fold activation, MUP esterase assay", "setting": "WT LCAT; [5]", "result": "no activating effect"}, {"measurement": "MUP assay EC50", "setting": "WT LCAT; [5]", "result": "no effect"}]}
